Measurements from PubChem BioAssay (NCI).
Several values for one entry are separate records, joined by “and”; a condition that tells them apart may be missing. Equal values may be shown once.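 Grown in 96-well plates, cells were treated for 48 hours with each compound at five concentrations. Insufficient inhibition: endpoint recorded as highest concentration tested. The concentration for 50% growth inhibition is given as GI50. TGI: total growth inhibition.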

Columns and labels:
Test in all cases: NCI anticancer screen, dose series, 48 h
[1] = system: HT29 colon
[2] = system: SNB-19 CNS
[3] = system: OVCAR-4 ovarian
[4] = system: OVCAR-8 ovarian
[5] = system: MALME-3M melanoma
[6] = system: SF-268 CNS
[7] = system: SK-MEL-28 melanoma
[8] = system: RXF 393 renal
[9] = system: EKVX NSCLC
[10] = system: PC-3 prostate

O=C(Nc1ccc(Br)cc1)c1cc(Br)ccc1O
GI50 [1]: 3.11 µM and 3.38 µM
TGI [1]: 16 µM and 39 µM
GI50 [2]: 0.339 µM and 1 µM
TGI [2]: > 93.1 µM
GI50 [3]: 0.452 µM and 1.17 µM
TGI [3]: > 100 µM
GI50 [4]: 0.554 µM and 2.65 µM
TGI [4]: > 82.8 µM
GI50 [5]: 0.284 µM and 0.48 µM
TGI [5]: 1.57 µM and 4.2 µM
GI50 [6]: 0.489 µM and 2.05 µM
TGI [6]: 26.6 µM and 13.4 µM
GI50 [7]: 0.314 µM and 1.44 µM
TGI [7]: 2.17 µM and 5.14 µM
GI50 [8]: 0.612 µM
TGI [8]: 3.89 µM
GI50 [9]: 0.788 µM and 0.75 µM
TGI [9]: 36.6 µM and > 20.1 µM
GI50 [10]: 0.973 µM and 2.69 µM
TGI [10]: 12.7 µM and > 29 µM

CC12CC(Br)(Br)C(=O)C3C1CCCC32
TGI [1]: 24.2 µM
TGI [2]: 28.8 µM
TGI [3]: 10.4 µM
TGI [4]: 12.7 µM
TGI [5]: 9.5 µM
TGI [6]: 35.1 µM
TGI [7]: 6.61 µM
TGI [8]: 6.04 µM
TGI [9]: 19.1 µM
TGI [10]: 25.6 µM

Cc1ccc(S(=O)(=O)NC(=O)Nc2ncn[nH]2)cc1
TGI [1]: > 100 µM
TGI [2]: > 100 µM
TGI [3]: > 100 µM
TGI [4]: > 100 µM
TGI [5]: > 100 µM
TGI [6]: > 100 µM
TGI [7]: > 100 µM
TGI [8]: > 100 µM
TGI [9]: > 100 µM
TGI [10]: > 100 µM

CCOC(=O)c1ccc(N[C@@H]2c3cc4c(cc3C(c3cc(OC)c(O)c(OC)c3)[C@H]3C(=O)OCC32)OCO4)cc1 (stereo not given in full)
GI50 [1]: 0.949 µM
TGI [1]: 6.92 µM
GI50 [2]: 0.261 µM
TGI [2]: 22.2 µM
TGI [3]: 12.6 µM
GI50 [4]: 0.479 µM
TGI [4]: 6.49 µM
GI50 [5]: 0.343 µM
TGI [5]: 2.95 µM
GI50 [6]: 0.394 µM
TGI [6]: 15.7 µM
GI50 [7]: 0.935 µM
TGI [7]: 8.59 µM
GI50 [8]: 0.426 µM and 1.95 µM
TGI [8]: 5.93 µM
GI50 [9]: 0.591 µM
TGI [9]: 9.17 µM
TGI [10]: 20.6 µM

O=c1oc2cc(O)ccc2cc1-c1nc2ccccc2o1
TGI [1]: > 100 µM
TGI [2]: > 100 µM
TGI [3]: > 100 µM
TGI [4]: > 100 µM
TGI [5]: > 100 µM
TGI [6]: > 100 µM
TGI [7]: > 100 µM
TGI [8]: 35.5 µM
TGI [9]: > 100 µM
TGI [10]: > 100 µM

C(#Cc1ccccc1C#Cc1cnccn1)c1cnccn1
GI50 [1]: 41.8 µM
TGI [1]: > 100 µM
GI50 [2]: > 100 µM
TGI [2]: > 100 µM
GI50 [3]: 38.3 µM
TGI [3]: > 100 µM
GI50 [4]: 38.2 µM
TGI [4]: > 72.6 µM
GI50 [5]: 29.8 µM
TGI [5]: 80.4 µM
GI50 [6]: 17.3 µM
TGI [6]: 55.3 µM
GI50 [7]: 46.9 µM
TGI [7]: > 100 µM
GI50 [8]: > 100 µM
TGI [8]: > 100 µM
GI50 [9]: 35.3 µM
TGI [9]: > 100 µM
GI50 [10]: 18.6 µM
TGI [10]: 55.3 µM

Cc1nc2ccccc2c(/C=C/c2ccc(F)cc2)c1C(=O)/C=C/c1ccccc1
GI50 [1]: 2.81 µM
TGI [1]: > 100 µM
GI50 [2]: 1.88 µM
TGI [2]: 4.02 µM
GI50 [3]: 3.66 µM
TGI [3]: > 100 µM
GI50 [4]: 2.62 µM
TGI [4]: 7.75 µM
GI50 [5]: 2.18 µM
TGI [5]: 5.03 µM
GI50 [6]: 3.45 µM
TGI [6]: > 100 µM
GI50 [7]: 2.36 µM
TGI [7]: 5.67 µM
GI50 [8]: 1.74 µM
TGI [8]: 3.26 µM
GI50 [9]: 4.38 µM
TGI [9]: 43.5 µM
GI50 [10]: 2.53 µM
TGI [10]: 8.81 µM

COc1cccc(/C=C2\COc3ccc(O)c(O)c3C2=O)c1OC
GI50 [1]: 3.33 µM
TGI [1]: 10.1 µM
GI50 [2]: 3.07 µM
TGI [2]: 12 µM
GI50 [3]: 2.17 µM
TGI [3]: 8.47 µM
GI50 [4]: 2.76 µM
TGI [4]: 20.9 µM
GI50 [5]: 2.09 µM
TGI [5]: 6.11 µM
GI50 [6]: 2.12 µM
TGI [6]: 10.3 µM
GI50 [7]: 3.53 µM
TGI [7]: 12.9 µM
GI50 [8]: 1.76 µM
TGI [8]: 3.42 µM
GI50 [9]: 4.29 µM
TGI [9]: 16.9 µM
GI50 [10]: 2.22 µM
TGI [10]: 11 µM

CN(COC(=O)C(C)(C)C)c1nc(N(C)COC(=O)C(C)(C)C)nc(N(C)COC(=O)C(C)(C)C)n1
TGI [1]: > 100 µM
TGI [2]: > 100 µM
TGI [3]: > 100 µM
TGI [5]: 98.5 µM
TGI [6]: > 100 µM
TGI [7]: > 100 µM
TGI [8]: 41.9 µM
TGI [9]: > 100 µM
TGI [10]: > 100 µM

O=C(NCCc1nccs1)c1cnc2c(S)cccc2c1
GI50 [1]: 4.34 µM
TGI [1]: 37 µM
GI50 [2]: 3.41 µM
TGI [2]: 33.1 µM
GI50 [3]: 2.72 µM
TGI [3]: 34 µM
GI50 [4]: 4.95 µM
TGI [4]: 57.4 µM
GI50 [5]: 4.03 µM
TGI [5]: 52.4 µM
GI50 [6]: 3.66 µM
TGI [6]: 27.1 µM
GI50 [7]: 3.5 µM
TGI [7]: > 100 µM
GI50 [8]: 3.07 µM
TGI [8]: 9.29 µM
GI50 [9]: 3.1 µM
TGI [9]: 38.2 µM
GI50 [10]: 4.39 µM
TGI [10]: 26.6 µM

COc1cccc(C2=C(c3cn(C)c4c(C)cccc34)C(=O)NC2=O)c1
GI50 [1]: > 19.6 µM
TGI [1]: > 25 µM
GI50 [2]: > 25 µM
TGI [2]: > 25 µM
GI50 [3]: > 14.3 µM
TGI [3]: > 25 µM
GI50 [4]: > 25 µM
TGI [4]: > 25 µM
GI50 [5]: > 25 µM
TGI [5]: > 25 µM
GI50 [6]: > 25 µM
TGI [6]: > 25 µM
GI50 [7]: > 25 µM
TGI [7]: > 25 µM
GI50 [8]: 8.58 µM
TGI [8]: > 25 µM
GI50 [10]: > 18.3 µM
TGI [10]: > 25 µM

CCc1n(Cc2ccc3ccccc3c2)cc[n+]1Cc1ccc2ccccc2c1
GI50 [1]: 0.563 µM
TGI [1]: 2.23 µM
GI50 [2]: 0.492 µM
TGI [2]: 1.82 µM
GI50 [3]: 0.307 µM
TGI [3]: 1.28 µM
GI50 [4]: 0.76 µM
TGI [4]: 3.13 µM
GI50 [5]: 0.247 µM
TGI [5]: 1.3 µM
GI50 [6]: 0.817 µM
TGI [6]: 2.42 µM
GI50 [7]: 0.581 µM
TGI [7]: 2.06 µM
GI50 [8]: 1.15 µM
TGI [8]: 2.63 µM
GI50 [9]: 0.766 µM
TGI [9]: 5.55 µM
GI50 [10]: 0.699 µM
TGI [10]: 2.49 µM

CC(=O)OC1C(C)OC(Oc2c(-c3ccc(O)cc3)oc3cc(O)cc(O)c3c2=O)C(O)C1OC(C)=O (stereo not given)
GI50 [1]: 31.4 µM
TGI [1]: > 91.3 µM
GI50 [2]: 36.2 µM
TGI [2]: > 100 µM
GI50 [3]: 35.9 µM
TGI [3]: > 100 µM
GI50 [4]: 29 µM
TGI [4]: > 84.9 µM
GI50 [5]: 21.3 µM
TGI [5]: > 75.2 µM
GI50 [6]: 27 µM
TGI [6]: > 89.5 µM
GI50 [7]: 29 µM
TGI [7]: > 100 µM
GI50 [8]: 24.2 µM
TGI [8]: 71.8 µM
GI50 [9]: 54.2 µM
TGI [9]: > 100 µM
GI50 [10]: 30.5 µM
TGI [10]: > 100 µM

O=C1C2C3C=CC(C2C(=O)N1CN1CCOCC1)C1C2C(=O)N(CN4CCOCC4)C(=O)C2C31 (stereo not given)
TGI [1]: > 100 µM
TGI [2]: > 78.9 µM
TGI [3]: > 60.4 µM
TGI [4]: > 69.2 µM
TGI [5]: > 100 µM
TGI [6]: > 64 µM
TGI [7]: > 66 µM
TGI [8]: > 65.2 µM
TGI [9]: > 100 µM
TGI [10]: > 100 µM
